According to patent publication US4962203A, “2-substituted quinolines useful as leukotriene antagonists” (Merck Frost Canada, Inc., priority 1989, dated 1990):

Legend:
[1] = system: guinea pig ileum (LTD4 induced contractions); assay: Guinea-pig ileum assay: inhibition of LTD4 induced contractions; design: species or system male Hartley strain guinea pigs; conditions: for inhibition at 0.001 µg/mL / inhibition at 0.01 µg/mL / inhibition at 0.1 µg/mL / inhibition at 1 µg/mL / inhibition at 10 µg/mL: Cavia porcellus, LTD4 0.3 ng/mL, read-out: % inhibition of LTD4 induced contractions, G.P. ileum assay; for inhibition at 0.001 µg/mL: drug conc. 0.001 μg/mL; for inhibition at 0.01 µg/mL: drug conc. 0.01 μg/mL; for inhibition at 0.1 µg/mL: drug conc. 0.1 μg/mL; for inhibition at 1 µg/mL: drug conc. 1 μg/mL; for inhibition at 10 µg/mL: drug conc. 10 μg/mL; for ability to inhibit LTD4 contractions of the guinea pig ileum, times greater than the reference compound: relative to the reference compound of Table I
Description: Guinea-Pig Ileum Preparation for Evaluation of Antagonists of Leukotriene D4 and Other Mediators
Tissue--Sections of ileum were taken from male Hartley strain guinea pigs (Charles River, U.S.A.) 300 to 500 g which were sacrificed by a blow to the head and exsanguinated. Terminal ileum was removed, cleaned with warm Tyrode's solution and then divided into segments of approximately […]. The segments of ileum were then mounted under 1 g tension in a 20 mL organ bath containing 10 mL of Tyrode's solution with the following composition (mM): NaCl, 137; KCl, 2.7; MgSO4, 7H2 O, 0.8; CaCl2, 1.8; NaH2 PO4, 0.42; NaHCO3, 11.9; Dextrose, 5.6. The bathing solution was continuously aerated with 95% O2 and 5% CO2 and bath temperature was maintained at 37° C. The beta adrenoceptor blocker, timolol (0.5 μg/mL) and the antimuscarinic agent atropine (1.0 μM) were present in the Tyrodeμs solution. Isometric tension changes were recorded using Grass FTO3 force displacement transducers (Grass Instrument G., Quincy, Mass.) connected to a Beckman Type R Dynograph. In order to wash the tissue, the bath solution was automatically aspirated and replaced with a constant volume (10 mL) of fresh solution by means of timer controlled solenoid valves.
After the tissues were stable a standard dose of LTD4 (0.3 ng/mL) was repeatedly added to the bath every 4-5 minutes (min contact, 30 sec wash, 3 min rest) until a consistent response was obtained (minimum of 4 responses). Following each addition of LTD4 the tissue was washed with Tyrode's solution until baseline tension was re-established. After consistent responses were obtained the tissues were used to screen compounds.
Usually, 10 μL of a 10 mg/mL solution of the compound to be tested was added to the bath 30 secs prior to the addition of LTD4. The compound and LTD4 remained in contact with the tissue until the maximum tension was developed (1 min) after which the tissue was washed repeatedly until the baseline was re-established. Percent inhibition relative to the immediately preceding control response was calculated for each dose of test compound. […] Provided the response was inhibited by less than 20%, the tissue was used immediately to evaluate another compound; when the response was inhibited by greater than 20%, cycles of LTD4 alone were added until a consistent response was re-established.

[2] = target: T1, LTD4 binding (Cavia porcellus, UniProt Q2NNR5); assay: LTD4 binding assay; conditions: for IC50: 50% LTD4 bound, unit inferred, read-out: LTD4 binding assay, drug conc. (IC50 values for the numbered examples); for LTD4 binding activity, times greater than the reference compound: relative to the reference compound of Table I
T1 construct: from tissue
T1 sequence (Q2NNR5 1-340): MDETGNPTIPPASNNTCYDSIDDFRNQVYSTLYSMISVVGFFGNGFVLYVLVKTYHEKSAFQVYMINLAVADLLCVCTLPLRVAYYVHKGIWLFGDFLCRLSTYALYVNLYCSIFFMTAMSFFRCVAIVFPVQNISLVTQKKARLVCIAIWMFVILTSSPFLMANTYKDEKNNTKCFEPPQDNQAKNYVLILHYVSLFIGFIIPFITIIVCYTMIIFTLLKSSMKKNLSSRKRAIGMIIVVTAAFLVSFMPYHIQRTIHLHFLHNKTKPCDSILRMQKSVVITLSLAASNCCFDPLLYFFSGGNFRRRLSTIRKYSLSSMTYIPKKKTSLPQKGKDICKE
Description: The results for LTD4 binding were determined by the method of S. S. Pong and R. N. DeHaven, Proc. Nat. Acad. Sci. U.S.A., 80, 7415-7419 (1983).
The drug concentration in the LTD4 binding assay for the numbered examples are the IC50 values. The LTD4 binding activity of these ranges from at least 14 (Ex. 85) to at least 214 (Ex. 71) times greater than the reference compound. The actual differences are even greater since an IC50 was not obtained for the reference compound.

Row | % LTD4 bound, LTD4 binding assay ([2]; at the drug conc. (IC50)) | IC50 [2] | LTD4 binding activity, times greater than the reference compound [2] | % LTD4 bound, LTD4 binding assay ([2]; reference compound, drug conc. 3 × 10^-6 (unit not given)) | SMILES | inhibition at 0.001 µg/mL [1] | inhibition at 0.01 µg/mL [1] | inhibition at 0.1 µg/mL [1] | inhibition at 1 µg/mL [1] | inhibition at 10 µg/mL [1] | ability to inhibit LTD4 contractions of the guinea pig ileum, times greater than the reference compound [1]
1 | 50% | – | – | – | CC(Oc1cccc(/C=C/c2ccc3ccc(Cl)cc3n2)c1)C(=O)O (stereo not drawn) | 38% | 94% | 95% | 97% | 94% | –
2 | 50% | 96 nM | – | – | CC(Oc1cccc(C#Cc2ccc3ccc(Br)cc3n2)c1)C(=O)O (stereo not drawn) | 50% | 91% | 94% | 98% | 97% | –
3 | 50% | – | – | – | CC(Oc1cccc(C2CC2c2ccc3ccc(Cl)cc3n2)c1)c1nn[nH]n1 (stereo not drawn) | – | 37% | 87% | 96% | 94% | –
4 | 50% | 14 nM | at least 214 times | – | CC(Oc1cccc(/C=C/c2ccc3ccc(Cl)cc3n2)c1)c1nn[nH]n1 (racemic) [Example 71, 5-(1-(3-(2-(7-chloroquinolin-2-yl)ethenyl)-phenoxy)ethyl)tetrazole] | 67% | 92% | 100% | 98% | 97% | over 1000 times
5 | 50% | 220 nM | at least 14 times | – | CC(Oc1cccc(OCc2ccc3ccc(Br)cc3n2)c1)C(=O)O (stereo not drawn) [Example 85, 2-(3-(7-bromoquinolin-2-ylmethoxy)phenoxy)propanoic acid] | 0% | 10% | 57% | 93% | 100% | about 20 times
6 | – | – | – | 76% | CC(Oc1cccc(Sc2ccc3ccc(Cl)cc3n2)c1)C(=O)O (stereo not drawn) [reference compound] | – | – | – | 27% | 89% | –
